The values below come from ChEMBL document CHEMBL3046383, “Enantioselective Herbicidal Activity of Chiral α-Methylbenzylphenylureas against Cyperaceae and Echinochloa Paddy Weeds” (Biosci Biotechnol Biochem, 1998).

Calls of active or inactive are those of the source. No rule for the calls is given here.

In data set [1] the test system is Cyperus difformis. Description: Herbicidal activity against Cyperus difformis assessed as phytotoxic activity ratings (0- no effect to 5-complete killing rating scale) at 100 g/a measured after 3 weeks post compound treatment under green house conditions. Type of data set: functional.
For data set [2], the system named is Echinochloa oryzicola. The data set is described as follows: Herbicidal activity against Echinochloa oryzicola assessed as phytotoxic activity ratings (0- no effect to 5-complete killing rating scale) at 100 g/a measured after 3 weeks post compound treatment under green house conditions. Type of data set: functional.
Data set [3] concerns Oryza sativa. The data set is described as follows: Phytotoxicity against directly seeded Oryza sativa (rice) seedlings assessed as phytotoxic activity ratings (0- no effect to 5-complete killing rating scale) at 100 g/a measured after 3 weeks post compound treatment under green house conditions. Type of data set: organism-based. Conditions: in vivo, 504 h.
Data set [4] has as its system Oryza sativa. Description: Phytotoxicity against transplanted Oryza sativa (rice) seedlings assessed as phytotoxic activity ratings (0- no effect to 5-complete killing rating scale) at 100 g/a measured after 3 weeks post compound treatment under green house conditions. Type of data set: organism-based. Conditions: in vivo, 504 h.
The test system of data set [5] is Schoenoplectiella juncoides. The data set is described as follows: Herbicidal activity against Schoenoplectiella juncoides var. Hotarui Ohwi assessed as phytotoxic activity ratings (0- no effect to 5-complete killing rating scale) at 100 g/a measured after 3 weeks post compound treatment under green house conditions. Type of data set: functional.
Data set [6] relates to Cyperus serotinus. The data set is described as follows: Herbicidal activity against Cyperus serotinus assessed as phytotoxic activity ratings (0- no effect to 5-complete killing rating scale) at 3.1 to 100 g/a measured after 3 weeks post compound treatment under green house conditions. Type of data set: functional.

With `CCOC(=O)c1ccc(NC(=O)N[C@@H](C)c2ccccc2)cc1`, the Activity in data set [1], in data set [2], in data set [3], in data set [4] and in data set [5] was 0% in each case. Moreover, the outcome in data set [6] was inactive.
As to `C[C@@H](NC(=O)Nc1cccc(Cl)c1)c1ccccc1`, the Activity in data set [1] worked out at 10%; in data set [2] it was 0%; in data set [3] it was 0%; in data set [4], 0%; in data set [5], 0%. Also, the outcome in data set [6] was inactive.
`COc1ccc(NC(=O)N[C@@H](C)c2ccccc2)cc1`: the Activity in data set [1], in data set [2], in data set [3], in data set [4] and in data set [5] was 0% in each case. Moreover, the result in data set [6] was inactive.
With `C[C@@H](NC(=O)Nc1ccc(F)cc1F)c1ccccc1`, the Activity in data set [1], in data set [2], in data set [3], in data set [4] and in data set [5] was 0% in each case. The result in data set [6] was inactive.
In the case of `COc1ccccc1NC(=O)N[C@@H](C)c1ccccc1`, the Activity in data set [1], in data set [2], in data set [3], in data set [4] and in data set [5] was 0% in each case. Also, the result in data set [6] was inactive.
Consider `C[C@H](NC(=O)Nc1ccc(C(F)(F)F)cc1)c1ccccc1`, for which the Activity in data set [1], in data set [2], in data set [3], in data set [4] and in data set [5] was 0% each time. Also, in data set [6], the result was inactive.
As to `CCOC(=O)c1ccc(NC(=O)N[C@H](C)c2ccccc2)cc1`, the Activity in data set [1], in data set [2], in data set [3], in data set [4] and in data set [5] was 0% each time. Further, in data set [6], the result was inactive.
As to `C[C@@H](NC(=O)Nc1cccc(Br)c1)c1ccccc1`, the Activity in data set [1] is listed as 10%; in data set [2], 0%; in data set [3], 0%; in data set [4], 0%; in data set [5], 0%. Also, the result in data set [6] was inactive.
As for `C[C@H](NC(=O)Nc1ccccc1Br)c1ccccc1`, the Activity in data set [1] came to 10%; in data set [2], 0%; in data set [3] it was 0%; in data set [4], 0%; in data set [5] it was 0%. Moreover, the result in data set [6] was inactive.
Take `C[C@H](NC(=O)Nc1cc(C(F)(F)F)cc(C(F)(F)F)c1)c1ccccc1`: the Activity in data set [1], in data set [2], in data set [3], in data set [4] and in data set [5] was 0% in each case. In addition, in data set [6], the outcome was inactive.
`CCCCCCCc1ccc(NC(=O)N[C@@H](C)c2ccccc2)cc1`: the Activity in data set [1], in data set [2], in data set [3], in data set [4] and in data set [5] was 0% throughout. For the same molecule, the result in data set [6] was inactive.
Turning to `CCc1cccc(CC)c1NC(=O)N[C@H](C)c1ccccc1`, the Activity in data set [1], in data set [2], in data set [3], in data set [4] and in data set [5] was 0% each time. Also, in data set [6], the result was inactive.
Turning to `C[C@@H](NC(=O)Nc1cccc(F)c1F)c1ccccc1`, the Activity in data set [1] is listed as 10%; in data set [2] it was 0%; in data set [3] it was 0%; in data set [4], 0%; in data set [5] it was 0%. The result in data set [6] was inactive.
As for `C[C@H](NC(=O)Nc1ccc(Cl)c(Cl)c1)c1ccccc1`, the Activity in data set [1], in data set [2], in data set [3], in data set [4] and in data set [5] was 0% in each case. Moreover, in data set [6], the outcome was inactive.
Take `C[C@@H](NC(=O)Nc1cc(C(F)(F)F)cc(C(F)(F)F)c1)c1ccccc1`: the Activity in data set [1], in data set [2], in data set [3], in data set [4] and in data set [5] was 0% in each case. The outcome in data set [6] was inactive.
Consider `CCOC(=O)c1cccc(NC(=O)N[C@H](C)c2ccccc2)c1`, for which the Activity in data set [1], in data set [2], in data set [3], in data set [4] and in data set [5] was 0% each time. Also, in data set [6], the outcome was inactive.
Consider `CCOC(=O)c1cccc(NC(=O)N[C@@H](C)c2ccccc2)c1`, for which the Activity in data set [1], in data set [2], in data set [3], in data set [4] and in data set [5] was 0% in each case. Moreover, in data set [6], the outcome was inactive.
As for `CC(=O)c1ccc(NC(=O)N[C@@H](C)c2ccccc2)cc1`, the Activity in data set [1], in data set [2], in data set [3], in data set [4] and in data set [5] was 0% throughout. Also, in data set [6], the outcome was inactive.
Consider `C[C@@H](NC(=O)Nc1ccccc1Br)c1ccccc1`, for which the Activity in data set [1] is listed as 10%; in data set [2], 0%; in data set [3] it was 0%; in data set [4], 0%; in data set [5] it was 0%. Besides, the result in data set [6] was inactive.
Take `C[C@H](NC(=O)Nc1cccc(Cl)c1Cl)c1ccccc1`: the Activity in data set [1], in data set [2], in data set [3], in data set [4] and in data set [5] was 0% in each case. Besides, the result in data set [6] was inactive.
Regarding `CCCCCCc1ccc(NC(=O)N[C@@H](C)c2ccccc2)cc1`, the Activity in data set [1], in data set [2], in data set [3], in data set [4] and in data set [5] was 0% in each case. Moreover, the outcome in data set [6] was inactive.
As to `CC(C)c1ccc(NC(=O)N[C@H](C)c2ccccc2)cc1`, the Activity in data set [1], in data set [2], in data set [3], in data set [4] and in data set [5] was 0% each time. The outcome in data set [6] was inactive.
With `CCOC(=O)c1ccccc1NC(=O)N[C@@H](C)c1ccccc1`, the Activity is given as 0% in data set [1]; 10% in data set [2]; 0% in data set [3]; 0% in data set [4]; 0% in data set [5]. Moreover, the outcome in data set [6] was inactive.
